One assay concerns the target KIT (Homo sapiens, UniProt P10721). Nature of the assay: KIT in vitro biochemical kinase study (Caliper EZ Reader). Particulars: FAM-labeled polypeptide, Caliper EZ Reader II; read-out: Enzymatic experiment KIT IC50. The method, then: (§1) In the present invention, the inhibitory activity of compounds against the CSF-1R activity was determined by using CSF-1R ADP-Glo assay. The compound-mediated inhibition effect was achieved by inhibiting the production of ADP from consumption of ATP, and the activities of compounds were evaluated by using the ADP-Glo kit (Promega, cat. No. V9101). The specific experimental process was as follows: • 1. The kinase reaction performed in the present invention was carried out in a 384-well plate (Perkinelmer, cat. No. 6007290), and 3.95 nM of CSF-1R, 500 μM of ATP and 0.2 mg/mL of polypeptide (Poly (Glu4, Try1), Sigma, cat. No. P0275) were respectively weighed and added to each well: • 2. following reagents were then added to each well to reach the final reaction system: 40 mM Tris, pH 7.5, 20 mM MgCl2, 0.01% Triton X-100, 0.1 mg/mL BSA, 2.5 mM DTT and 0.1% DMSO; • 3. the reaction was conducted at 30° C. for 60 min; • 4. then an equal volume of stop solution (ADP-Glo) was added to the kinase reaction system; • 5. the mixed solution was incubated at 25° C. for 60 min, and the kinase reaction was then terminated; • 6. a two-fold volume of detection reagent was then added to each well; • 7. the mixed solution was incubated at 25° C. for 30 min; • 8. the compound IC50 value was measured by using a plate reader (Tecan, M1000) and a four-parameter curve was generated in Graphpad Prism. B. KIT/PDGFRA In Vitro Biochemical Kinase Study • 1. Preparation of 1-fold kinase buffer and stop solution • 1.1 1-fold kinase buffer: 50 mM HEPES, pH 7.5, 0.0015% Brij-35. • 1.2 stop solution: 100 mM HEPES, pH 7.5, 0.015% Brij-35, 0.2% Coating Reagent #3 50 mM EDTA • 2. Preparation of compound solution • 2.1 Dilution of compound solution • 1) The final concentration of the compound solution was 40 μM. and the concentration of the prepared stock solution was 50 times of the final concentration, i.e., 2 mM. • 2) 80 μL of 100% DMSO was added to the second well of the 96-well plate, then 20 μL of 10 mM compound solution was added, and thereby 2 mM compound solution was prepared, 60 μL of 100% DMSO was added to other wells, 20 μL of compound was taken from the second well, added to the third well and diluted by 4 times. […]

For the next assay, the target named is PDGFRA (Homo sapiens, UniProt P16234). The assay is described as follows: PDGFRA in vitro biochemical kinase study (Caliper EZ Reader). Particulars: FAM-labeled polypeptide, Caliper EZ Reader II; read-out: Enzymatic experiment PDGFRA IC50. The method, then: as §1
PDGFRA, sequence (P16234 24-1089): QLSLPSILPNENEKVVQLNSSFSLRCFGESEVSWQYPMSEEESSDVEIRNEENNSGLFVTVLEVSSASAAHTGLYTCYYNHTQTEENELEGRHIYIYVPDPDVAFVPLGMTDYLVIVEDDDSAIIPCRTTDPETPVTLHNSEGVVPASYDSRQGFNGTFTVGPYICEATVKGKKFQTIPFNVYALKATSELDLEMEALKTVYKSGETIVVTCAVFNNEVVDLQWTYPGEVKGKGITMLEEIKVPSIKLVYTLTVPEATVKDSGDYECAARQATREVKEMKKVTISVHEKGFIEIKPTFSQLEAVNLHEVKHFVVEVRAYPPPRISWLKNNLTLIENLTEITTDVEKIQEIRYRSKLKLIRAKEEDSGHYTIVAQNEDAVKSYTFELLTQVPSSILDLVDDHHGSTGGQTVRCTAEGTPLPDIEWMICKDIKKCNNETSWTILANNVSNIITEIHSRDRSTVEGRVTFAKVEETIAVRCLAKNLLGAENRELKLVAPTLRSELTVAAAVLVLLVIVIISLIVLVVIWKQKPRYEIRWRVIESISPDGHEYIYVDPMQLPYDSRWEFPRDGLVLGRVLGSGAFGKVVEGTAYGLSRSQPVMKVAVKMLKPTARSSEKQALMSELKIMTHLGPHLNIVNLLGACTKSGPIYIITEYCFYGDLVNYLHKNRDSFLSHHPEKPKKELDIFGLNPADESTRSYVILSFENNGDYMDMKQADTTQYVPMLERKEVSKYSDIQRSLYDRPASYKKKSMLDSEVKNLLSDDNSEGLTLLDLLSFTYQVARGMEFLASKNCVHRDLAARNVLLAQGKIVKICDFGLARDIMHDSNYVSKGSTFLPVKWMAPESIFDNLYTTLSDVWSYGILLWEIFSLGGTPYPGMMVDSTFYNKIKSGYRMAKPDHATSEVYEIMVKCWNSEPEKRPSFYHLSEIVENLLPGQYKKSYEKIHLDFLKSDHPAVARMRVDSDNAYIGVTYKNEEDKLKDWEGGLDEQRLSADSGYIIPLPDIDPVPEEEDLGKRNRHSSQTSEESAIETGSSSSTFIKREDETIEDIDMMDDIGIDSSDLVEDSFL

Experimental findings from patent US11180495B2 (Abbisko Therapeutics Co., Ltd., priority 2017, dated 2021) are described below.

KIT, sequence (P10721 26-976): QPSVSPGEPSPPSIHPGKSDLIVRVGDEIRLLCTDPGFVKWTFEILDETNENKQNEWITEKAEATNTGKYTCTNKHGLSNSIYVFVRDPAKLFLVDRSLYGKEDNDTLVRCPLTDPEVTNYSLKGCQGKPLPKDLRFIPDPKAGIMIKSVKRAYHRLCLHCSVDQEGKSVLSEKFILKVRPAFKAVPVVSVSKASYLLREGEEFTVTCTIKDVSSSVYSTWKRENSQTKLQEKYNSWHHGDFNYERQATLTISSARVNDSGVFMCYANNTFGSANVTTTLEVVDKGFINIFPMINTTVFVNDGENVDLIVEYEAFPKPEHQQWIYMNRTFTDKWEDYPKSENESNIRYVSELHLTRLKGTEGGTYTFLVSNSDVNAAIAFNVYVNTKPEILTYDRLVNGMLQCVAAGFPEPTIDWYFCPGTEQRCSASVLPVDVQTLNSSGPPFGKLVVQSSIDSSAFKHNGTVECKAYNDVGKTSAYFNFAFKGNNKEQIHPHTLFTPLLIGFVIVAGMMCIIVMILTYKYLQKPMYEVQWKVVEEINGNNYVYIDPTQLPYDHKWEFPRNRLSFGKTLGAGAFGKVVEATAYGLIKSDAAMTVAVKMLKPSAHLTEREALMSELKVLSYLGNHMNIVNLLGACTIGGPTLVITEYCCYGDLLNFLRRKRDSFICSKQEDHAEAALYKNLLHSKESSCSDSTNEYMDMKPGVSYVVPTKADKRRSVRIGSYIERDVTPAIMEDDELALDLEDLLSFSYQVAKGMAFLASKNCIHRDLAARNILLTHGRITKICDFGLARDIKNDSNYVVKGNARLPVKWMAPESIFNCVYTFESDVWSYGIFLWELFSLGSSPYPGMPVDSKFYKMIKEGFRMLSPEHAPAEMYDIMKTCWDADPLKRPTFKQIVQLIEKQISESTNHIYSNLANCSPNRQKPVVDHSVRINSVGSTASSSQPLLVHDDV

As usually defined, the IC50 is the concentration that inhibits the measured activity by half. As to `Cc1nc(-c2cnc(NC(C)C)[nH]c2=O)ccc1Cc1c[nH]c2ncc(F)cc12` [Example 5, 5-(5-((5-fluoro-1H-pyrrolo[2,3-b]pyridin-3-yl)methyl)-6-methylpyridin-2-yl)-2-(isopropylamino)pyrimidin-4(3H)-one], the results for the IC50 at KIT and at PDGFRA were 222 nM and 9270 nM, respectively.

On to `Cc1nc(-c2cnc(NC(C)C)n(C)c2=O)ccc1Cc1c[nH]c2ncccc12` [Example 7, 5-(5-((1H-pyrrolo[2,3-b]pyridin-3-yl)methyl)-6-methylpyridin-2-yl)-2-(isopropylamino)-3-methylpyrimidin-4(3H)-one], for which the IC50 is 50.8 nM on KIT and 998 nM on PDGFRA.
